This is an account of results in patent US11759477B2, “Compositions of nitrates and methods of use thereof” (Heartbeet Ltd., priority 2007, dated 2023).

Data set [1] in a line: Plasma nitrite after intraperitoneal nitrate in wild type, germ free and eNOS knockout mice. In kind it is in vivo. The settings on record: 10 mg/kg ip, 1 hour later. As to the method:
Three different strains of mice—wild type (n=5 placebo, n=5 nitrate), germ free (n=5 placebo, n=5 nitrate) and eNOS knockout mice (n=2 placebo, n=3 nitrate), were given an intra peritoneal injection of 10 mg/kg body weight nitrate or placebo (NaCl) and plasma level of nitrite measured 1 hour later.

Data set [2] is described as follows: Oral Glucose Tolerance Test after three-day sodium nitrate supplementation (n=8). In kind it is in vivo, human. The conditions noted are these: 75 g glucose, 0.1 mmol/kg body weight/day for three days. Here is the method:
FIG. 8 is a graph showing changes in blood glucose levels after an oral challenge with glucose in 8 additional subjects in a double-blind, placebo-controlled cross-over study. A standard oral glucose tolerance test was performed. The subjects (healthy non-smoking volunteers) had their diet supplemented for 3 days with either sodium chloride (PLACEBO) or sodium nitrate (NITRATE) at a dose of 0.1 mmol/kg/day. Data are presented as mean±SEM.
The lower increase in plasma glucose after nitrate pre-treatment was verified in a further study wherein a standard Oral Glucos Tolerance Test (75 g glucose) was performed in 8 healthy non-smoking subjects after a three-day supplementation with either sodium chloride or sodium nitrate at equal molar amounts (0.1 mmol/kg body weight/day). […] Blood glucose levels were measured at two time points before (−10 and 0 min) and at 15, 30, 45, 60, 75, 90, 105 and 120 min after glucose intake (n=8). At the occasion when the subjects had taken nitrate, the area under the curve for blood glucose was smaller compared to when they had ingested placebo.

Test in data set [3]: not given
The source holds these as a separate data set.

A short description of data set [4]: Post-ischemic abdominal aortic blood flow after nitrate infusion. In kind it is in vivo. The settings on record: rats, 10 mg/kg iv bolus + 3 mg/kg/h. As to the method: Rats received an intravenous bolus dose of 10 mg/kg nitrate (NaNO3, n=4) or placebo (NaCl, n=4)) diluted in PBS (pH 7.4) followed by continuous infusion of 3 mg/kg body weight/h. An hour after the addition of nitrate (open boxes) or placebo (filled circles), L-NAME (50 mg/kg) was given, and 10 minutes later, a supra renal clamping of the abdominal aorta was performed. After 30 minutes of ischemia the clamp was removed and the abdominal aortic blood flow was monitored during 60 minutes.

Data set [5] is described as follows: Blood pressure at rest after dietary sodium nitrate supplementation. The conditions noted are these: 0.1 mmol/kg body weight/day oral, 3 days, mean±SD, n=9. In kind it is in vivo, human. As to the method:
Subjects: Nine healthy, well trained (VO2peak 55±3.7 ml×kg-1×min-1), males (28±6 years) volunteered for the study. All subjects were trained cyclists or triathletes and well accustomed to the testing procedure. It was chosen to use well-trained subjects to avoid training effects from the tests such as enhanced VO2peak or better mechanical efficiency during submaximal exercise. The protocol was approved by the regional ethics committee in Stockholm and all subjects gave their written consent prior to participation.
Dietary supplementation with nitrate: The aim with the present study was to investigate the effects of two distinct dietary patterns, one with higher, and one with lower than normal nitrate intake. […] During two three-day periods, separated by a washout interval of ten days, the subjects were instructed to avoid all foods with moderate or high nitrate content (all vegetables, all cured meats, strawberries, grapes, and tea). In addition, they were told to restrain from alcohol and tobacco products. Otherwise they were free to eat any food they liked during the three days of restricted diet. The subjects were randomized to start with either ingestion of 0.1 mmol sodium nitrate/kg body weight/day dissolved in water or an equal amount of sodium chloride (placebo). The daily dose was divided and ingested three times daily. The different solutions could not be distinguished by taste or appearance. The daily nitrate dose corresponded to the amount normally found in 150-250 gram of a nitrate-rich vegetable such as spinach, lettuce or beetroot. The last dose of nitrate or placebo was ingested in the morning on the day of measurement (see the main tests below). The order between the nitrate supplementation period (NIT) and the placebo period (CON) was balanced.
The main tests: The subjects refrained from heavy exercise three days prior to the main tests and avoided all exercise the day before the tests. They were also told to eat their last light meal at least 3 hours before the start of the tests. […]

Data set [6] is classed as in vivo, human.
A short description of data set [7]: Oral Glucose Tolerance Test after nitrate pre-treatment (n=3). In kind it is in vivo, human. The conditions noted are these: 75 g glucose, 60 min after nitrate 1 mmol/kg body weight NaNO3, n=3; placebo 8.2. As to the method:
FIGS. 7a-7c consist of three graphs, showing changes in blood glucose levels after an oral challenge with glucose for three test subjects in a double-blind, placebo-controlled cross-over study (FIGS. 7a, 7b and 7c). A standard oral glucose tolerance test was performed. The subjects (healthy non-smoking volunteers) had their diet supplemented for 3 days with either sodium chloride (placebo) or sodium nitrate (Nitrate) at a dose of 0.1 mmol/kg body weight/day.
The increase in plasma glucose after a standard Oral Glucose Tolerance Test (75 g glucose in 250 ml water) is lower when measured after nitrate pre-treatment (1 mmol/kg body weight NaNO3) compared to placebo (NaCl). The study was performed with three healthy test subjects in a double-blind study. Glucose ingestion started 60 min after the nitrate ingestion. Blood glucose levels were measured during the 120 min period after the glucose load (n=3). At 30 min mean plasma glucose was 8.2 mmol/l with placebo and in the same subjects 6.5 mmol/l after nitrate supplementation.

The nature of another data set: clinical. As to the method: (§1) Prior to the test the subjects had been on a diet low in nitrate for one day and had been fasting for at least 8 h.
The procedure of data set [8]: FIG. 2 is a graph showing changes in oxygen consumption (VO2) following iv infusion of sodium nitrite in increasing doses. Nitrite was infused over a 10 min period in non-smoking healthy male volunteers (30-70 years).
The present inventors have been studying the effects of nitrate and nitrite on various physiological functions including blood pressure, glucose metabolism and energy expenditure in vivo. In the examples below, unless otherwise noted, nitrate was administered perorally and nitrite was administered intravenously (iv). Oxygen consumption was measured using indirect calorimetry.
as §1
The source holds these as a separate data set.

[9] abbreviates: anesthetized rats, 10 mg/kg bolus NaNO3.

With `O=[N+]([O-])[O-].[Na+]` [sodium nitrate], under setting [9], the “Concentration of plasma nitrate after infusion” value is reported as “increases dramatically” and the “Plasma nitrite concentrations after infusion” value was “increased”. The “Increase in plasma nitrite, nitrate only vs nitrate+allopurinol” value (rats, p<0.05) was “significantly greater”. Also, in data set [1], the “Nitrate-induced increase in plasma nitrite across wild type, germ free and eNOS knockout mice” value is on record as “equal”. The “Area under the curve for blood glucose, vs placebo” value in data set [2] is reported as “smaller”. The “Plasma nitrate levels immediately after the maximal work test” value in data set [3] (0.1 mmol/kg/day oral, 3 days, after maximal work test) was determined as 175 ± 61 µM. Besides, the “Plasma levels of nitrate at rest” value in [3] (0.1 mmol/kg/day oral, 3 days, at rest) amounted to 182000 ± 55000 nM. The “Decrease in nitrite concentrations during exercise, vs CON” value in [3] (compared with placebo period) was “more pronounced”. Further, in data set [3] (in vivo, po), the “Plasma nitrite levels at rest” value was found to be 226 ± 87 nM and the “Plasma nitrite levels immediately after the maximal work test” value came out at 137 ± 48 nM. Further, in data set [3] (p=0.08), the “Increase in c-GMP concentrations after the maximal work as compared to rest, vs CON” value is “tended to be higher”. In addition, the “Change of plasma nitrate during exercise” value in data set [3] (p=0.8) is recorded as “did not change”. Also, the “Post-ischemic blood flow in early (0-10 minutes) and late (10-60 minutes) phase, vs placebo” value in [4] is “higher blood flow”. Moreover, the “Abdominal aortic blood flow after 60 min of reperfusion” value in data set [4] (L-NAME, 30 min ischemia, control rats 20% of pre-ischemic values) is ~75 % of control values. For the same molecule, in [5], the “Average resting systolic blood pressure” value was 112±8 mmHg and the “Resting diastolic blood pressure” value is listed as 68±5.5 mmHg. The “Average resting systolic blood pressure” value in data set [5] (listed as NIT) is reported as 120+/−5.9 mmHg. For the same molecule, in data set [6] (45-80% VO2peak), the “Average lowering of VO2 vs CON over the 4 submaximal work rates” value turned out to be 0.15 L/min. In addition, the “VE, VE/VO2 or respiratory exchange ratio (RER), NIT vs CON” value in data set [6] (any of the submaximal work rates) was “No significant differences”. Further, the “Rating of perceived exertion (Borg RPE-scale), NIT vs CON” value in data set [6] (any work load (submax or max)) is “no difference”. Besides, the “Gross efficiency (GE)” value in [6] (average, p=0.02 vs CON) is recorded as 21.1%. For the same molecule, the “Delta efficiency (DE)” value in data set [6] (four lowest work rates, linear regression, p=0.04 vs CON) amounted to 22.9±1.9%. Moreover, the “[Hla] (plasma lactate), NIT vs CON” value in [6] (in vivo) is listed as “No significant differences”. Moreover, the VO2peak in data set [6] (maximal work, no significant difference, p=0.29) is 4.49 ± 0.44 L/min. In data set [6] (maximal work, p=0.35), this molecule displayed a Maximal work rate of 360.6±32.8 watt. This molecule also registered a VEmax in data set [6] (maximal work, p=0.5) of 182 ± 21.4 L/min. In data set [6] (maximal work, p=0.94), this molecule yielded an HRmax of 189.8±7.0 beats×min-1. In [6] (submaximal work), the “Heart rate (HR), NIT vs CON” value is “no difference” and the “VO2 during the four work rates corresponding to 45-80% VO2peak, vs placebo period” value was “significantly lower”. The “VO2 at 80% of VO2peak” value in data set [6] (submaximal work, 0.1 mmol/kg/day oral, 3 days, p=0.003 vs CON) worked out at 3.44 ± 0.31 L/min. This molecule showed an Oxygen pulse in [6] (submaximal work, p=0.08 vs CON) of 20.3±1.9 ml×beat-1. In data set [7], the “Mean plasma glucose at 30 min” value amounted to 6.5 mmol/L.
Consider `O=NO` [sodium nitrite], for which, in “clinical” (basal 1.1-1.3 mmol/l, did not change significantly), the “Methemoglobin after infusion of nitrite” value was in the range of 1.1 to 1.4 mmol/L. The concentration at 10 min in the data set “clinical” (human, plasma, iv, 10 nmol/kg body weight/min) lay in the range of 370 to 480 nM. The “Reduction of resting energy expenditure” value in [8] (after 10 min of iv infusion, n=4, major drop at 10 nmoles/kg body weight/min) is listed as 10-25%. Also, in data set [8] (iv 1 nmol/kg body weight/min, 10 min observation period), the “Effect on energy expenditure / oxygen consumption” value is listed as “no obvious effects”. Besides, the “Oxygen consumption compared to the 10 nmol dose” value in [8] (iv 100 nmol/kg body weight/min) is “no further decrease in oxygen consumption”.
